Results from article PMC11627468, “Novel enzyme‐resistant pancreatic polypeptide analogs evoke pancreatic beta‐cell rest, enhance islet cell turnover, and inhibit food intake in mice” (Biofactors (Oxford, England), 2024).

What was measured:
[1] = biological target: T1, purified human DPP‐4 enzyme (Homo sapiens, UniProt P27487); test: In vitro DPP‐4 degradation; format: in vitro ADME
T1 construct: purchased Sigma-Aldrich
Procedure: PP peptides (50 μg) were incubated at 37°C for 0–8 h with 5 μL of purified human DPP‐4 enzyme (0.01 U/L, Sigma‐Aldrich, Gillingham, UK). Degradation reactions were terminated via the addition of 10 μL 10% (v/v) trifluoroacetic acid/water solution. Reaction mixes were separated by reverse phase rp‐HPLC using a Phenomenex C‐18 analytical column (250 × 4.6 mm^2) with UV absorbance detection at 214 nm (ThermoQuest SpectraSystem UV2000 detector). HPLC peaks of interest were collected and analyzed by MALDI‐TOF MS on a Perseptive Biosystems Voyager‐DE Biospectrometry (Hertfordshire, UK).

BRIN‐BD11 beta‐cells [2] = test: In vitro insulin secretion from BRIN‐BD11 beta‐cells; format: cell-based; details: 20 min, insulin radioimmunoassay, n = 8
Procedure: Effects of the PP and related peptides on insulin secretion were examined in pancreatic BRIN‐BD11 beta‐cells. The secretory characteristics of this cell line have been described in detail previously.[22] Cells were cultured in RPMI 1640 media (Gibco Life Technologies Ltd), with a glucose concentration of 11.1 mM and supplemented with 10% v/v fetal bovine serum (Gibco), 1% v/v antibiotics (0.1 mg/mL streptomycin and 100 U/mL penicillin) at 37°C in 5% atmospheric CO2. For experimentation, cells were seeded into 24‐well plates (Falcon Ltd) at a density of 150,000 cells per well. Following overnight attachment, media was aspirated, and cells were preincubated in 1.1 mM glucose KRB buffer for 40 min. Following preincubation, the 1.1 mM glucose solution was removed and 1 mL of KRB test solution, containing 16.7 mM glucose with PP peptides (10^−12 to 10^−6 M) was added for 20 min. In a separate series, PP peptides were also incubated in the presence of alanine (10 mM) at 16.7 mM glucose to further investigate the effects on insulin secretion. For all experiments, following a 20 min incubation period, the supernatant was collected and stored at −20°C until insulin concentration determination using a dextran‐coated charcoal insulin radioimmunoassay.[23]

BRIN‐BD11 beta‐cells [3] = test: Beta‐cell proliferation (Ki‐67 staining); format: cell-based; details: peptide 10^−6 M, versus control cultures, n = 3
Procedure: To assess the effects of PP and related peptides (10^−8 and 10^−6 M) on beta‐cell proliferation and apoptosis, BRIN‐BD11 beta‐cells were seeded onto sterilized, clear‐glass coverslips (16 mm diameter) and placed in 12‐well plates (Falcon Ltd) at a density of 40,000 cells per well and cultured for 18 h. Media control (11.1 mM glucose), GLP‐1 (10^−8 and 10^−6 M), and a cytokine cocktail mix (IL‐1β [100 U/mL], IFNγ [20 U/mL], TNFα [200 U/mL], Sigma Aldrich, UK) were employed as controls, as appropriate. Cells were then rinsed with PBS and fixed using 4% paraformaldehyde. After antigen retrieval with sodium citrate buffer at 95°C for 20 min, blocking was performed using 2% bovine serum albumin (BSA) for 45 min. For proliferation studies, the slips were then incubated at 37°C with rabbit anti‐Ki‐67 primary antibody (Abcam, ab15580), and subsequently with Alexa Fluor® 488 secondary antibody. Coverslips were mounted onto polylysine‐coated microscope slides using a 50:50 glycerol:PBS solution and stored at 4°C until required for analysis. To assess the ability of PP peptides to protect against cytokine‐induced apoptosis, cells were seeded, washed, and fixed as above, with the exception that the media was supplemented with the cytokine mix. The slips were then incubated at 37°C with TUNEL reaction mix for 60 min (Roche Diagnostics, Germany), and mounted onto microscope slides. To assess receptor specificity, co‐incubation of PP peptides with the well characterized NPY4R antagonist, (S)‐VU0637120,[24] at 10^−5 M was employed for beta‐cell proliferation experiments, conducted as detailed above. All slides were viewed using a fluorescent microscope (Olympus System Microscope, model BX51; Southend‐on‐Sea, UK) and photographed by DP70 camera adapter system. Proliferation/TUNEL positive frequency was determined using the cell‐counter function on ImageJ Software and expressed as % of total cells analyzed.

C57BL/6 mice = test: Glucose‐stimulated plasma insulin in mice; format: in vivo; details: peptide 25 nmol/kg with glucose 18 mmol/kg i.p., versus glucose control; n = 6
Procedure: Acute in vivo studies were conducted in groups (n = 6) of 4‐month‐old male C57BL/6 mice (Envigo, Huntington, UK). All mice were maintained on standard rodent chow (10% fat, 30% protein, and 60% carbohydrate; Trouw Nutrition, Northwich, UK), and drinking water provided ad libitum. Mice were housed individually and kept in a temperature‐controlled environment (22 ± 2°C), with a 12‐h light/dark cycle. Experiments were carried out in accordance with the UK Animal Scientific Procedures Act 1986 as well as being approved by Ulster University Animal Ethics Review Committee (AWERB) committee and protected by the UK Home Office Animal project license number PPL2902, approved on April 26, 2021. Acute effects of test peptides on food intake were tested in overnight (16 h) fasted mice. Briefly, fasted mice were administered an intraperitoneal (i.p.) injection of saline vehicle (0.9% (w/v) NaCl) alone or in combination with test peptides (each at 25, 75, or 200 nmol/kg bw) and cumulative food intake measured at regular intervals, to assess the pharmacodynamic profile of the test peptides. For food intake studies, mice were provided with preweighed rodent maintenance diet in their food hopper at t = 0 min, which was then re‐weighed at each timepoint with all due care taken to account for any wastage or crumbling of the food pellets. In this regard, the investigator was present at all times during the 180‐min test period to ensure accuracy and consistency in all measurements. Furthermore, effects of PP or related peptides (25 nmol/kg bw) on glucose homeostasis and insulin secretion were evaluated in overnight fasted mice following i.p. injection of glucose alone (18 mmol/kg bw) or in combination with PP peptides (each at 25 nmol/kg bw). […] Blood glucose was measured immediately using a hand‐held Ascencia Contour blood glucose meter (Bayer Healthcare, Newbury, Berkshire, UK). For plasma insulin, blood was collected in chilled fluoride/heparin‐coated microcentrifuge tubes (Sarstedt, Numbrecht, Germany) and centrifuged using a Beckman microcentrifuge (Beckman Instruments, Galway, Ireland) for 10 min at 12,000 rpm. Plasma was separated and stored at −20°C, until determination of plasma insulin by radioimmunoassay.[23]

[4] = in vivo; cited from earlier work
Procedure: Despite these prominent therapeutically exploitable advantages, clinical utilization of native PP as a positive NPY4R modulator is limited by a short circulatory half‐life of less than 7 min.[17] This appears to be due to rapid cleavage of the N‐terminal dipeptide, Ala^1‐Pro^2, from PP by the ubiquitous enzyme dipeptidyl peptidase‐4 (DPP‐4).[18] […] As such, DPP‐4 resistant PP mole ...

T1 sequence (P27487 whole entry): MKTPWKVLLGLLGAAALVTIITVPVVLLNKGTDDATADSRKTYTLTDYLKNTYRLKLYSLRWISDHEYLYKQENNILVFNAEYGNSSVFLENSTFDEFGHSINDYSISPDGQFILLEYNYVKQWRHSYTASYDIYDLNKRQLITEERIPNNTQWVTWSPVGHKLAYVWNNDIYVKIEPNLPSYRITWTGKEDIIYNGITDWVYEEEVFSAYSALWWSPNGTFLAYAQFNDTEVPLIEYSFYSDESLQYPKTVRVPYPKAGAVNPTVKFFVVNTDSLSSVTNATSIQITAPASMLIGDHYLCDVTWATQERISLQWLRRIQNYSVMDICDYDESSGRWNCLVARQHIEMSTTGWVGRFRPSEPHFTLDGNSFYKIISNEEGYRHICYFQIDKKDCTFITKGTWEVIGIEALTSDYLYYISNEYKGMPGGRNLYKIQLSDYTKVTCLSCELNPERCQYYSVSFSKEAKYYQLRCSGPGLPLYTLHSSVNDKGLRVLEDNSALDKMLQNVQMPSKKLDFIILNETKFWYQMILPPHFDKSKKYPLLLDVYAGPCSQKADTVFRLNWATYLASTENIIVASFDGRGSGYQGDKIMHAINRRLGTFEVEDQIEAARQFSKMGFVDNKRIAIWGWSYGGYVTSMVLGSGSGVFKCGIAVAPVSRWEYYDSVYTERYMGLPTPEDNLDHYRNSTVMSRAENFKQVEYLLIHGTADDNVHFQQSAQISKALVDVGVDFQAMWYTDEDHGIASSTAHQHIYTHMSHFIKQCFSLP

CC[C@H](C)[C@H](NC(=O)[C@H](Cc1ccc(O)cc1)NC(=O)[C@H](CCCNC(=N)N)NC(=O)[C@H](CCCNC(=N)N)NC(=O)[C@H](CC(C)C)NC(=O)[C@H](CC(=O)O)NC(=O)[C@H](C)NC(=O)[C@H](C)NC(=O)[C@H](Cc1ccc(O)cc1)NC(=O)[C@H](CCC(N)=O)NC(=O)[C@H](C)NC(=O)[C@H](CCSC)NC(=O)[C@H](CCC(N)=O)NC(=O)[C@H](CCC(=O)O)NC(=O)[C@@H]1CCCN1C(=O)[C@@H](NC(=O)[C@H](C)NC(=O)[C@H](CC(N)=O)NC(=O)[C@H](CC(=O)O)NC(=O)CNC(=O)[C@@H]1CCCN1C(=O)[C@H](Cc1ccc(O)cc1)NC(=O)[C@@H](NC(=O)[C@@H]1CCCN1C(=O)[C@H](CCC(=O)O)NC(=O)[C@H](CC(C)C)NC(=O)[C@@H]1CCCN1C(=O)[C@H](C)N)C(C)C)[C@@H](C)O)C(=O)N[C@@H](CC(N)=O)C(=O)N[C@@H](CCSC)C(=O)N[C@@H](CC(C)C)C(=O)N[C@H](C(=O)N[C@@H](CCCNC(=N)N)C(=O)N1CCC[C@H]1C(=O)N[C@@H](CCCNC(=N)N)C(=O)N[C@@H](Cc1ccc(O)cc1)C(N)=O)[C@@H](C)O [PP, Pancreatic polypeptide]
DPP‐4 mediated degradation, outcome in words [1]: N‐terminal di‐peptide cleavage to yield PP(3–36) | insulin secretion at 16.7 mM glucose (BRIN‐BD11 beta‐cells [2]; peptide 10^−6 M): slight inhibitory effect | insulin secretion at 16.7 mM glucose (BRIN‐BD11 beta‐cells [2]; peptides 10^−12 to 10^−7 M): no discernible impact | BRIN‐BD11 cell proliferation (BRIN‐BD11 beta‐cells [3]): significantly (p < 0.001) enhanced | glucose‐induced insulin secretion (plasma insulin) (C57BL/6 mice): slightly decreasing (p = <0.05 to 0.01) | circulatory half‐life [4]: less than 7 min
